IC50 data for 40 compounds are collected here from US9732075B2, “Benzimidazole-proline derivatives” (IDORSIA PHARMACEUTICALS LTD, priority 2012, dated 2017).

The target in experiment [1] is human orexin-1 receptor (Homo sapiens (Human), UniProt O43613). Kind of experiment: In vitro assay: intracellular calcium measurements (FLIPR), antagonistic activity. It counts as cell-based. As to conditions: CHO cells expressing human orexin-1 receptor, orexin-A agonist, geometric mean, read-out: IC50 Ox1. Here is the method:
(§1) In Vitro Assay: Intracellular Calcium Measurements:
(§2) Chinese hamster ovary (CHO) cells expressing the human orexin-1 receptor and the human orexin-2 receptor, respectively, are grown in culture medium (Ham F-12 with L-Glutamine) containing 300 μg/ml G418, 100 U/ml penicillin, 100 μg/ml streptomycin and 10% heat inactivated fetal calf serum (FCS). The cells are seeded at 20,000 cells/well into 384-well black clear bottom sterile plates (Greiner). The seeded plates are incubated overnight at 37° C. in 5% CO2.
(§3) Human orexin-A as an agonist is prepared as 1 mM stock solution in MeOH: water (1:1), diluted in HBSS containing 0.1% bovine serum albumin (BSA), NaHCO3: 0.375 g/l and 20 mM HEPES for use in the assay at a final concentration of 3 nM.
(§4) Antagonists are prepared as 10 mM stock solution in DMSO, then diluted in 384-well plates using DMSO followed by a transfer of the dilutions into in HBSS containing 0.1% bovine serum albumin (BSA), NaHCO3: 0.375 g/l and 20 mM HEPES. On the day of the assay, 50 μl of staining buffer (HBSS containing 1% FCS, 20 mM HEPES, NaHCO3: 0.375 g/l, 5 mM probenecid (Sigma) and […] of the fluorescent calcium indicator fluo-4 AM (1 mM stock solution in DMSO, containing 10% pluronic) is added to each well. The 384-well cell-plates are incubated for 50 min at 37° C. in 5% CO2 followed by equilibration at RT for 30 min before measurement.
(§5) Within the Fluorescent Imaging Plate Reader (FLIPR Tetra, Molecular Devices), antagonists are added to the plate in a volume of 10 μl/well, incubated for 120 min and finally 10 μl/well of agonist is added. Fluorescence is measured for each well at 1 second intervals, and the height of each fluorescence peak is compared to the height of the fluorescence peak induced by an approximate EC70 (for example 5 nM) of orexin-A with vehicle in place of antagonist. The IC50 value (the concentration of compound needed to inhibit 50% of the agonistic response) is determined and may be normalized using the obtained IC50 value of a on-plate reference compound. Optimized conditions are achieved by adjustment of pipetting speed and cell splitting regime. The calculated IC50 values may fluctuate depending on the daily cellular assay performance. Fluctuations of this kind are known to those skilled in the art. Average IC50 values from several measurements are given as geometric mean values.

Experiment [2] deals with human orexin-2 receptor (Homo sapiens (Human), UniProt O43614). The description is as above. The class given is cell-based. As to conditions: CHO cells expressing human orexin-2 receptor, orexin-A agonist, geometric mean, read-out: IC50 Ox2. Here is the method: as §1, §2, §3, §4, §5
human orexin-2 receptor, sequence (O43614 whole entry): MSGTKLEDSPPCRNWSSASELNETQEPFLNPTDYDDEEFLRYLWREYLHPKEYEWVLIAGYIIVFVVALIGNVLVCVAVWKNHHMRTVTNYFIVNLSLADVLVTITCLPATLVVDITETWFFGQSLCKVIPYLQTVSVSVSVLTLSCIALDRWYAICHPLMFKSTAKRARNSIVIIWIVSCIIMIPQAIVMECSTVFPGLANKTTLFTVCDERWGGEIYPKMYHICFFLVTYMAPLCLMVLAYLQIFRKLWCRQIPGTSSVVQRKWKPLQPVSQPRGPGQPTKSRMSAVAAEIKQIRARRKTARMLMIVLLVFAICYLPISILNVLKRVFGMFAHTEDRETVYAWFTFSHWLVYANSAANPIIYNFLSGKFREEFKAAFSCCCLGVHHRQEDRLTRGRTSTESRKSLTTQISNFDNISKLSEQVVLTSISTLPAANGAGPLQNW

Each structure is given as a SMILES string. pIC50: −log10 of the molar value.

human orexin-1 receptor, sequence (O43613 whole entry): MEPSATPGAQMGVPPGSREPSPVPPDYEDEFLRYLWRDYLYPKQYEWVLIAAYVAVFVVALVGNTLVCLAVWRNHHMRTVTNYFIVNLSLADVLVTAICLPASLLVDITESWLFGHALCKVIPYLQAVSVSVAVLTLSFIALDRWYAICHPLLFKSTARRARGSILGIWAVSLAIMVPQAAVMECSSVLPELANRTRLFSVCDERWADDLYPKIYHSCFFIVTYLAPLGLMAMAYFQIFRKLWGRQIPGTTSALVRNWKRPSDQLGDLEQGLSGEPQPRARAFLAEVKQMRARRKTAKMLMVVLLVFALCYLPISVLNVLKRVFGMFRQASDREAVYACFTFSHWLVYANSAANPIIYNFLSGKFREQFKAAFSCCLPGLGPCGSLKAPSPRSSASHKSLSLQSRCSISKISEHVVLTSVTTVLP

For orientation: pIC50 means the negative decadic logarithm of the IC50, by convention in mol/L. Consider `COc1ccc2nc([C@@H]3CCCN3C(=O)c3nc(C)sc3-c3cccc(F)c3)[nH]c2c1` [Ex. 1.21], for which the figures for the pIC50 in experiment [1] and in experiment [2] were 5.93 and 6.83, respectively.

For the compound `COc1ccc2nc([C@@H]3CCCN3C(=O)c3nc(C)sc3-c3ccc(C)cc3)[nH]c2c1` [Ex. 1.22], the pIC50 in experiment [1] is 6.38; in experiment [2] it was 7.28.

Take `COc1ccc2nc([C@@H]3CCCN3C(=O)c3nc(C4CC4)sc3-c3ccc(C)cc3)[nH]c2c1` [Ex. 1.23]: the pIC50 in experiment [1] was 6.28; in experiment [2] it was 6.67.

For the compound `CCc1ccc(-c2sc(C)nc2C(=O)N2CCC[C@H]2c2nc3ccc(OC)cc3[nH]2)cc1` [Ex. 1.24], the values for the pIC50 in experiment [1] and in experiment [2] were 6.07 and 7.09, respectively.

For `COc1ccc2nc([C@@H]3CCCN3C(=O)c3nc(C)sc3-c3cccc(Cl)c3)[nH]c2c1` [Ex. 1.25], the negative logarithm of the IC50 (pIC50) in experiment [1] is 6.44; in experiment [2] it was 7.05.

Regarding `COc1ccc2nc([C@@H]3CCCN3C(=O)c3ccccc3-c3ccc(C)c(C)c3)[nH]c2c1` [Ex. 1.26], the negative-log IC50 (pIC50) in experiment [1] is 6.90; in experiment [2], 7.66.

As for `COc1ccc2nc([C@@H]3CCCN3C(=O)c3ccccc3-n3nccn3)[nH]c2c1` [Ex. 1.27], the pIC50 in experiment [1] is 5.98; in experiment [2], 7.46.

As for `COc1ccc2nc([C@@H]3CCCN3C(=O)c3cnc(C)nc3-c3ccc(Cl)c(Cl)c3)[nH]c2c1` [Ex. 1.28], the negative logarithm of the IC50 (pIC50) is 6.94 in experiment [1] and 6.96 in experiment [2].

Regarding `COc1ccc2nc([C@@H]3CCCN3C(=O)c3cnc(C)nc3-c3cccc(Cl)c3)[nH]c2c1` [Ex. 1.29], the pIC50 is 6.43 in experiment [1] and 6.74 in experiment [2].

On to `COc1ccc2nc([C@@H]3CCCN3C(=O)c3cncnc3-c3ccc(Br)c(Cl)c3)[nH]c2c1` [Ex. 1.30], for which the negative-log IC50 (pIC50) was 6.20 in experiment [1] and 6.83 in experiment [2].

For `COc1ccc2nc([C@@H]3CCCN3C(=O)c3cnc(C)nc3-c3ccc(C)c(C)c3)[nH]c2c1` [Ex. 1.31], the negative logarithm of the IC50 (pIC50) in experiment [1] is 6.71; in experiment [2] it was 7.11.

On to `COc1ccc2nc([C@@H]3CCCN3C(=O)c3cnc(C)nc3-c3ccccc3)[nH]c2c1` [Ex. 1.32], for which the values for the negative-log IC50 (pIC50) in experiment [1] and in experiment [2] were 6.46 and 6.86, respectively.

On to `COc1ccc2nc([C@@H]3CCCN3C(=O)c3cnc(C)nc3-c3ccc(Br)c(Cl)c3)[nH]c2c1` [Ex. 1.33], for which the pIC50 in experiment [1] is 7.12; in experiment [2], 7.32.

Regarding `CSc1ccc2nc([C@@H]3CCCN3C(=O)c3nc(C)sc3-c3ccc(Br)cc3)[nH]c2c1` [Ex. 1.34], the values for the pIC50 in experiment [1] and in experiment [2] were 6.91 and 7.25, respectively.

For `CSc1ccc2nc([C@@H]3CCCN3C(=O)c3nc(C4CC4)sc3-c3ccccc3)[nH]c2c1` [Ex. 1.35], the negative logarithm of the IC50 (pIC50) in experiment [1] is 6.93; in experiment [2], 7.00.

For the compound `CSc1ccc2nc([C@@H]3CCCN3C(=O)c3nc(C)sc3-c3cccc(Cl)c3Cl)[nH]c2c1` [Ex. 1.36], the pIC50 in experiment [1] is 6.96; in experiment [2], 7.57.

Turning to `COc1cccc(-c2sc(C)nc2C(=O)N2CCC[C@H]2c2nc3ccc(SC)cc3[nH]2)c1` [Ex. 1.37], the pIC50 in experiment [1] was 6.81; in experiment [2] it was 7.21.

Take `CSc1ccc2nc([C@@H]3CCCN3C(=O)c3nc(C)sc3-c3cccc(C(F)(F)F)c3)[nH]c2c1` [Ex. 1.38]: the pIC50 in experiment [1] was 6.44; in experiment [2] it was 6.96.

Consider `CSc1ccc2nc([C@@H]3CCCN3C(=O)c3nc(C)sc3-c3cccc(F)c3)[nH]c2c1` [Ex. 1.39], for which the pIC50 in experiment [1] is 6.80; in experiment [2] it was 7.14.

`CSc1ccc2nc([C@@H]3CCCN3C(=O)c3nc(C)sc3-c3ccc(C)cc3)[nH]c2c1` [Ex. 1.40]: the negative logarithm of the IC50 (pIC50) is 7.13 in experiment [1] and 7.64 in experiment [2].

Take `CSc1ccc2nc([C@@H]3CCCN3C(=O)c3nc(C4CC4)sc3-c3ccc(C)cc3)[nH]c2c1` [Ex. 1.41]: the pIC50 was 6.94 in experiment [1] and 7.19 in experiment [2].

In the case of `CCc1ccc(-c2sc(C)nc2C(=O)N2CCC[C@H]2c2nc3ccc(SC)cc3[nH]2)cc1` [Ex. 1.42], the pIC50 in experiment [1] is 6.58; in experiment [2], 7.19.

For the compound `CSc1ccc2nc([C@@H]3CCCN3C(=O)c3nc(C)sc3-c3cccc(Cl)c3)[nH]c2c1` [Ex. 1.43], the negative-log IC50 (pIC50) in experiment [1] was 7.01; in experiment [2], 7.24.

Turning to `CSc1ccc2nc([C@@H]3CCCN3C(=O)c3nc(C)sc3-c3cc(F)cc(F)c3)[nH]c2c1` [Ex. 1.44], the figures for the negative-log IC50 (pIC50) in experiment [1] and in experiment [2] were 6.39 and 6.92, respectively.

Regarding `CSc1ccc2nc([C@@H]3CCCN3C(=O)c3nccnc3-c3cc(C)cc(F)c3)[nH]c2c1` [Ex. 1.45], the pIC50 in experiment [1] was 6.30; in experiment [2], 6.96.

With `CSc1ccc2nc([C@@H]3CCCN3C(=O)c3ccccc3-c3ccc(C)c(C)c3)[nH]c2c1` [Ex. 1.46], the pIC50 in experiment [1] is 6.89; in experiment [2], 7.89.

Consider `CSc1ccc2nc([C@@H]3CCCN3C(=O)c3ccccc3-n3nccn3)[nH]c2c1` [Ex. 1.47], for which the pIC50 in experiment [1] is 6.35; in experiment [2], 7.89.

Regarding `CSc1ccc2nc([C@@H]3CCCN3C(=O)c3cnc(C)nc3-c3ccc(Cl)c(Cl)c3)[nH]c2c1` [Ex. 1.49], the values for the negative-log IC50 (pIC50) in experiment [1] and in experiment [2] were 7.49 and 7.38, respectively.

`CSc1ccc2nc([C@@H]3CCCN3C(=O)c3cnc(C)nc3-c3ccc(F)cc3)[nH]c2c1` [Ex. 1.50]: the pIC50 in experiment [1] was 6.40; in experiment [2], 6.97.

Take `CSc1ccc2nc([C@@H]3CCCN3C(=O)c3cnc(C)nc3-c3cccc(Cl)c3)[nH]c2c1` [Ex. 1.51]: the negative logarithm of the IC50 (pIC50) in experiment [1] was 7.18; in experiment [2], 7.68.

For the compound `CSc1ccc2nc([C@@H]3CCCN3C(=O)c3cncnc3-c3ccc(Cl)c(Cl)c3)[nH]c2c1` [Ex. 1.52], the figures for the negative logarithm of the IC50 (pIC50) in experiment [1] and in experiment [2] were 6.13 and 6.92, respectively.

Consider `CSc1ccc2nc([C@@H]3CCCN3C(=O)c3cncnc3-c3ccc(C)c(C)c3)[nH]c2c1` [Ex. 1.53], for which the pIC50 in experiment [1] was 6.21; in experiment [2] it was 7.05.

Take `CSc1ccc2nc([C@@H]3CCCN3C(=O)c3cncnc3-c3ccc(Br)c(Cl)c3)[nH]c2c1` [Ex. 1.54]: the pIC50 was 6.14 in experiment [1] and 7.10 in experiment [2].

Take `CSc1ccc2nc([C@@H]3CCCN3C(=O)c3cnc(C)nc3-c3ccc(C)c(C)c3)[nH]c2c1` [Ex. 1.55]: the negative-log IC50 (pIC50) in experiment [1] was 7.46; in experiment [2] it was 8.00.

For `COc1cccc(-c2nc(C)ncc2C(=O)N2CCC[C@H]2c2nc3ccc(SC)cc3[nH]2)c1` [Ex. 1.56], the negative-log IC50 (pIC50) in experiment [1] was 6.60; in experiment [2], 7.06.

In the case of `CSc1ccc2nc([C@@H]3CCCN3C(=O)c3cnc(C)nc3-c3ccccc3)[nH]c2c1` [Ex. 1.57], the pIC50 is 7.12 in experiment [1] and 7.66 in experiment [2].

In the case of `CSc1ccc2nc([C@@H]3CCCN3C(=O)c3cnc(C)nc3-c3ccc(Br)c(Cl)c3)[nH]c2c1` [Ex. 1.58], the negative-log IC50 (pIC50) in experiment [1] is 7.49; in experiment [2], 7.62.

Consider `CSc1ccc2nc([C@@H]3CCCN3C(=O)c3cnc(C)nc3-c3cc(Cl)cc(Cl)c3)[nH]c2c1` [Ex. 1.59], for which the results for the negative logarithm of the IC50 (pIC50) in experiment [1] and in experiment [2] were 7.11 and 6.60, respectively.

As to `CSc1cccc2nc([C@@H]3CCCN3C(=O)c3nc(C)sc3-c3ccc(Br)cc3)[nH]c12` [Ex. 1.60], the results for the pIC50 in experiment [1] and in experiment [2] were 7.21 and 7.32, respectively.

As to `CSc1cccc2nc([C@@H]3CCCN3C(=O)c3nc(C4CC4)sc3-c3ccccc3)[nH]c12` [Ex. 1.61], the negative-log IC50 (pIC50) in experiment [1] and in experiment [2] was 7.68 throughout.
